Data from US20260028334A1, “N-(3-(BENZO[B]THIOPHENE-2-CARBOXAMIDO)-PHENYL)-2,3-DIHYDROBENZO[B][1,4]DIOXINE-6-CARBOXAMIDE DERIVATIVES AND RELATED COMPOUNDS AS LACTATE/ATP PRODUCTION INHIBITORS FOR THE TREATMENT OF CANCER” (WMT Aktiengesellschaft, priority 2022, published 2026).

Assays:
Format in all cases: cell-based
lactate production = test: Lactate production inhibition assay; conditions: summary of Table 1
Source text: (§1) Recombinant Lactate Dehydrogenase A (LDHA) was used to convert lactate in tissue culture supernatants to pyruvate, with the concomitant reduction of NAD^+ to NADH. The electron acceptor 1-methoxyphenazine methosulfate (MPMS) was then reduced by the generated NADH, thereby regenerating NAD+. Reduced 1-methoxyphenazine methosulfate is used in turn to reduce Water Soluble Tetrazolium 8 (WST8) to an orange WST8 formazan product. The assay is adapted from the publication “Application of WST-8 based colorimetric NAD(P)H detection for quantitative dehydrogenase assays” described in Chamchoy et al., BMC Biochemistry (2019) 20(1):4.
Cells were plated at 4,000 per well in 96-well plate in a medium of high glucose DMEM (PAN) supplemented with 10% FBS (PAN), 2 mM glutamine-alanine (PAN), 2 mM pyruvate (Sigma) and 10 mL/L penicillin-streptomycin (PAN) and grown at 37° C. in 0.5% O2, 5% CO2 and 75% humidity. For hypoxia, cells were grown and treated in the Whitley H35 Hypoxystation (Don Whitley Scientific) at 37° C. in 0.5% O2, 5% CO2 and 75% humidity. The next day, cells were induced with test compounds (FIG. 2: compounds of examples 3/16, 3/8, 10 at 10000, 3333, 1111, 370, 123, 41, 14, 5 and 1.5 nM; FIG. 7: compounds of examples 3/16, 3/8, 10 at 41, 14, 4.6 nM and Phenformin at 100, 50, 25, 12.5, 6.25 μM; FIGS. 8C and 8D: compounds of example 3/16, 3/8, 10, 3/19, 30 and 30/2 at 10000, 3333, 1111, 370, 123, 41, 14, 5 and 1.5 nM), as well as with vehicle (DMSO) only, for 48 hours. After this time, the medium was removed from the cells to measure extracellular lactate. To detect extracellular lactate, cell supernatants are diluted 1:5 in assay buffer (0.2 M tris, pH 8.2) by adding 10 μl cell supernatant+40 μl buffer in a 96-well plate. Assay substrate mix is prepared by adding NAD+ (3.75 mM), WST-8 (0.9 mM), MPMS (10 mM) and recombinant LDHA, expressed in E. coli as an N-terminal hexahistidine tagged fusion protein, is added to a final concentration of 0.8 μg/ml in assay buffer. Thereafter, 80 μl of substrate mix is added to 20 μl of diluted cell supernatant in a 96-well flat-bottomed plate and the absorbance at 460 nm determined at one minute intervals over a 30 minute period. A standard curve of known lactate concentrations of 10, 8, 6, 4, 1, 0.5 and 0.25 mM was constructed for each assay plate.

HeLa cells = test: Lactate production inhibition assay, co-treatment with phenformin (FIG. 7); conditions: 48 hours co-treatment of phenformin (6.25-100 μM) with compound at 41, 14, 4.6 nM
Source text: as §1
Cells were plated at 4,000 per well in 96-well plate in a medium of high glucose DMEM (PAN) supplemented with 10% FBS (PAN), 2 mM glutamine-alanine (PAN), 2 mM pyruvate (Sigma) and 10 mL/L penicillin-streptomycin (PAN) and grown at 37° C. in 0.5% O2, 5% CO2 and 75% humidity. For hypoxia, cells were grown and treated in the Whitley H35 Hypoxystation (Don Whitley Scientific) at 37° C. in 0.5% O2, 5% CO2 and 75% humidity. […] Thereafter, 80 μl of substrate mix is added to 20 μl of diluted cell supernatant in a 96-well flat-bottomed plate and the absorbance at 460 nm determined at one minute intervals over a 30 minute period. […]

p62 = p62 (Homo sapiens (Human), UniProt Q13501); test: Western Blot analysis of p62; conditions: HeLa cells, normoxic and hypoxic conditions; for p62: 24 hours, 10, 30 and 100 nM, also with Bafilomycin A, FIG. 5
Method: Western Blot analysis was used to detect amounts of specific protein in differently treated cells. Proteins are separated by size, transferred onto a nitrocellulose membrane and incubated with protein specific antibodies. The density of the observed band is proportional to the amount of the specific protein inside the cell.
Cells were plated at 4×10^6 (for hypoxia) or 3×10^6 (for normoxia) cells per […] plate in medium of high glucose DMEM (PAN) supplemented with 10% FBS (PAN), 2 mM glutamine-alanine (PAN), 2 mM pyruvate (Sigma) and 10 ml/L penicillin-streptomycin (PAN), and grown at 37° C. in […], 5% CO2 and 75% humidity. For hypoxia, cells were grown and treated in the Whitley H35 Hypoxystation (Don Whitley Scientific) at 37° C. in 0.5% O2, 5% CO2 and 75% humidity. Next day, the cells were treated with test compounds (FIG. 4: compounds of example 3/8 and 10 at concentrations 0.1, 0.3 and 1 μM, Bafilomycin A at 20 nM; FIG. 5: compounds of example 3/16, 3/8 and 10 at concentrations 10, 30 and 100 nM, Bafilomycin A at 20 nM), as well as with vehicle (DMSO) only, for 24 h. After 24 hours, the cells were washed with PBS and scraped to collect. The lysate was centrifuged at 2,000 rpm for 3 min at 4° C. The cell pellet was resuspended in 250 μl Lysis Buffer (20 mM Tris pH 7.8, 150 mM NaCl, 0.05% Tween20, 2 mM MgCl2, protease inhibitors (Roche), 1 mM NaF, 1 mM Na3VO4) and sonicated at 50% for 20 sec. The sample was centrifuged at 14,000 rpm for 4 min at 4° C. Protein concentration of the sample was measured using the DC Protein Assay Kit (Biorad, 5000112), 22 μg of protein extract per well was loaded onto a precast SDS page gel (Biorad, 1704273). Proteins were then transferred onto a PVDF-membrane (Biorad, 10026933) using Biorad Trans-Blot Turbo Transfer System. […] The chemiluminescence was measured using chemiluminescent substrate (#34580, Thermo Scientific).

p62 protein levels (p62; 24 hours, 0.1, 0.3 and 1 μM, FIG. 4) | p62 (p62) | Compound | activity in inhibiting production of ATP and/or lactate (lactate production) | lactate levels (HeLa cells)
dose-dependent reduction | dose-dependent reduction | O=C(Nc1ccc(F)c(NC(=O)c2cc3ccc(OCCCN4CCCC4)cc3s2)c1)c1ccc2c(c1)OCCO2 [3/8] | high activity | downregulation
– | dose-dependent reduction | Cc1ccc(NC(=O)c2ccc3c(c2)OCCO3)cc1NC(=O)c1cc2cccnc2s1 [3/16] | high activity | downregulation
